Experiments:
Sprague Dawley rats = assay: Porsolt forced swim test; type: in vivo
Description: A non-clinical in vivo pharmacology study (Porsolt assay) was performed to measure antidepressant-like effects. The study allowed for the evaluation of the effects of each compound on the Porsolt forced swim test as assessed by the rats' response (reduced floating time) during a 5-minute swimming test.
Male 2-3 month old Sprague Dawley rats were used (Harlan, Indianapolis, Ind.). Rats were housed in Lucite cages with aspen wood chip bedding, maintained on a 12:12 light:dark cycle (lights on at 5 AM), and given ad libitum access to Purina lab chow (USA) and tap water throughout the study.
The Porsolt forced swim test adapted for use in rats was performed as described by Burgdorf et al., (The long-lasting antidepressant effects of rapastinel (GLYX-13) are associated with a metaplasticity process in the medial prefrontal cortex and hippocampus. Neuroscience 308:202-211, 2015). Animals were placed in a 46 cm tall×20 cm in diameter clear glass tube filled to 30 cm with tap water (23±1° C.) for 15 min on the first day (habituation) and 5 min on the subsequent test day. Animals were tested 1 h or 1 week post-dosing with the test compounds or vehicle control (0.5% sodium carboxymethyl cellulose in 0.9% sterile saline). Animals received a 15 min habituation session 1 day before the first 5 min test. Water was changed after every other animal. Animals were videotaped, and floating time as defined as the minimal amount of effort required to keep the animals head above water was scored offline by a blinded experimenter with high inter-rater reliability (Pearson's r>0.9).

Plasma stability (Rat) = type: in vitro ADME; settings: after 60 minutes
Description: (§1) Plasma stability of disclosed compounds was investigated. The following table indicates the percent of compound remaining after 60 minutes.

[1] = Oral pharmacokinetics in rats (plasma, brain, CSF); type: in vivo, Sprague Dawley rats; settings: rat, oral gavage, 10 mg/kg
Description: In another experiment, Sprague Dawley rats were dosed per os (oral gavage) using a normal saline formulation containing 10 mg/kg of the compounds identified in the table below. Plasma, brain, and CSF samples were analyzed at various time points over a 24 hour period. The table below summarizes the results of the oral pharmacokinetics, where the first three values (Tmax, Cmax and AUClast) are plasma values.

NMDAR2A = molecular target: T1, NMDAR2A (Homo sapiens, UniProt Q12879); assay: NMDAR agonist assay, [3H]MK-801 binding, NMDAR2A expressing HEK cell membranes; type: biochemical; settings: 50 μM glutamate
T1 construct: expressed in transfected cells; host or cells: HEK cells (membrane extract)
T1 sequence (Q12879 23-1464, species assumed, other chains not shown): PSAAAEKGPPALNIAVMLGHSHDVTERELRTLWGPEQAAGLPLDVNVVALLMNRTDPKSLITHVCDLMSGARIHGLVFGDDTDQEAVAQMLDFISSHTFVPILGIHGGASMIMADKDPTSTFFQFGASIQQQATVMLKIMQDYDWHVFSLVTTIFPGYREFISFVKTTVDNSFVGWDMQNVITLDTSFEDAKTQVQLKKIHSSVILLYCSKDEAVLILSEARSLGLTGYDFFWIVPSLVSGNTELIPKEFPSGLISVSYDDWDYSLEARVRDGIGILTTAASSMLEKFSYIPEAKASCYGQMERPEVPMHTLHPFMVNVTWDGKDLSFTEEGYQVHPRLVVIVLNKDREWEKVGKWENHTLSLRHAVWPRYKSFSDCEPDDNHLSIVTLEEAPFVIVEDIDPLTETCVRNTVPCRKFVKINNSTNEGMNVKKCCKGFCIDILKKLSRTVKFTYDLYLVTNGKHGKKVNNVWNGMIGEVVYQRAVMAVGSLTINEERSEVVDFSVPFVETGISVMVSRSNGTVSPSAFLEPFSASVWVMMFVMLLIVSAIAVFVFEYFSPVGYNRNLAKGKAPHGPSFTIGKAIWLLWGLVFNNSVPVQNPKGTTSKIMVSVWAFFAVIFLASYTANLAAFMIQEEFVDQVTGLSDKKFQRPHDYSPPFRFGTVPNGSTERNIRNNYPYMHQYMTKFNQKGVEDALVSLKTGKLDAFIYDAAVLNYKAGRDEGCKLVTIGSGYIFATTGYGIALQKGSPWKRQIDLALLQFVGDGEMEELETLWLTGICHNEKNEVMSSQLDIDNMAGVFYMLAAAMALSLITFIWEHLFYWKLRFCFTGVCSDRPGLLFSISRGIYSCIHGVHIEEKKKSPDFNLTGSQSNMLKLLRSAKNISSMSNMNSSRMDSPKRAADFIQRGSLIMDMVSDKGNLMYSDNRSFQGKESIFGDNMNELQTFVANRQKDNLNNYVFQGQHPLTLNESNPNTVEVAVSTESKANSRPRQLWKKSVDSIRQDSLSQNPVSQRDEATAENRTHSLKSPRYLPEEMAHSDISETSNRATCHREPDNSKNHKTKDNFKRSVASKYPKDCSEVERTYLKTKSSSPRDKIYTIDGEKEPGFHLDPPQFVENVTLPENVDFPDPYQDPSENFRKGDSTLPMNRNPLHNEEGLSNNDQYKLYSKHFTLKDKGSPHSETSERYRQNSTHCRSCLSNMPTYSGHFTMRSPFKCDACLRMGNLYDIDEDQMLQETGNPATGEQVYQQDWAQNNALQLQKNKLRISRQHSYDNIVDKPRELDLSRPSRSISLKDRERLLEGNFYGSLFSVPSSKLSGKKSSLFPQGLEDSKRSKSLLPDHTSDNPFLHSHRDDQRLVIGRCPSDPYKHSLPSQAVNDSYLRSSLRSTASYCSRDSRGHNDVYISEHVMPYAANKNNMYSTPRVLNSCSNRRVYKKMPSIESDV
Description: (§2) Assays were conducted as described by Moskal et al., “GLYX-13: a monoclonal antibody-derived peptide that acts as an N-methyl-D-aspartate receptor modulator,” Neuropharmacology, 49, 1077-87, 2005. These studies were designed to determine if the test compounds act to facilitate NMDAR activation in NMDAR2A, NMDAR2B, NMDAR2C or NMDAR2D expressing HEK cell membranes as measured by increases in [3H]MK-801 binding.
(§3) In the assay, 300 μg of NMDAR expressing HEK cell membrane extract protein was preincubated for 15 minutes at 25° C. in the presence of saturating concentrations of glutamate (50 μM) and varying concentrations of test compound (1×10^−15M-1×10^−7M), or 1 mM glycine. Following the addition of 0.3 μCi of [3H]MK-801 (22.5 Ci/mmol), reactions were again incubated for 15 minutes at 25° C. (nonequilibrium conditions). Bound and free [3H]MK-801 were separated via rapid filtration using a Brandel apparatus.
(§4) In analyzing the data, the DPM (disintegrations per minute) of [3H]MK-801 remaining on the filter were measured for each concentration of test compound or for 1 mM glycine. The DPM values for each concentration of a ligand (N=2) were averaged. The baseline value was determined from the best fit curve of the DPM values modeled using the GraphPad program and the log(agonist) vs. response(three parameters) algorithm was then subtracted from all points in the dataset. The % maximal [3H]MK-801 binding was then calculated relative to that of 1 mM glycine: all baseline subtracted DPM values were divided by the average value for 1 mM glycine. The EC50 and % maximal activity were then obtained from the best fit curve of the % maximal [3H]MK-801 binding data modelled using the GraphPad program and the log(agonist) vs. response(three parameters) algorithm.
(§5) The tables below summarize the results for the wild type NMDAR agonists NMDAR2A, NMDAR2B, NMDAR2C, and NMDAR2D, and whether the compound is not an agonist (−), is an agonist (+), or is a strong agonist (++), where column A is based on the % maximal [3H]MK-801 binding relative to 1 mM glycine (−=0; <100%=+; and >100%=++); and column B is based on log EC50 values (0=−; >1×10^−9 M (e.g., −8)=+; and <1×10^−9 M (e.g., −10)++).

Plasma stability (Human) = type: in vitro ADME; settings: after 60 minutes
Description: as §1

NMDAR2D [2] = molecular target: T2, NMDAR2D (Homo sapiens, UniProt O15399); assay: NMDAR agonist assay, [3H]MK-801 binding, NMDAR2D expressing HEK cell membranes; type: biochemical; settings: 50 μM glutamate
T2 construct: expressed in transfected cells; host or cells: HEK cells (membrane extract)
T2 sequence (O15399 28-1336, species assumed, other chains not shown): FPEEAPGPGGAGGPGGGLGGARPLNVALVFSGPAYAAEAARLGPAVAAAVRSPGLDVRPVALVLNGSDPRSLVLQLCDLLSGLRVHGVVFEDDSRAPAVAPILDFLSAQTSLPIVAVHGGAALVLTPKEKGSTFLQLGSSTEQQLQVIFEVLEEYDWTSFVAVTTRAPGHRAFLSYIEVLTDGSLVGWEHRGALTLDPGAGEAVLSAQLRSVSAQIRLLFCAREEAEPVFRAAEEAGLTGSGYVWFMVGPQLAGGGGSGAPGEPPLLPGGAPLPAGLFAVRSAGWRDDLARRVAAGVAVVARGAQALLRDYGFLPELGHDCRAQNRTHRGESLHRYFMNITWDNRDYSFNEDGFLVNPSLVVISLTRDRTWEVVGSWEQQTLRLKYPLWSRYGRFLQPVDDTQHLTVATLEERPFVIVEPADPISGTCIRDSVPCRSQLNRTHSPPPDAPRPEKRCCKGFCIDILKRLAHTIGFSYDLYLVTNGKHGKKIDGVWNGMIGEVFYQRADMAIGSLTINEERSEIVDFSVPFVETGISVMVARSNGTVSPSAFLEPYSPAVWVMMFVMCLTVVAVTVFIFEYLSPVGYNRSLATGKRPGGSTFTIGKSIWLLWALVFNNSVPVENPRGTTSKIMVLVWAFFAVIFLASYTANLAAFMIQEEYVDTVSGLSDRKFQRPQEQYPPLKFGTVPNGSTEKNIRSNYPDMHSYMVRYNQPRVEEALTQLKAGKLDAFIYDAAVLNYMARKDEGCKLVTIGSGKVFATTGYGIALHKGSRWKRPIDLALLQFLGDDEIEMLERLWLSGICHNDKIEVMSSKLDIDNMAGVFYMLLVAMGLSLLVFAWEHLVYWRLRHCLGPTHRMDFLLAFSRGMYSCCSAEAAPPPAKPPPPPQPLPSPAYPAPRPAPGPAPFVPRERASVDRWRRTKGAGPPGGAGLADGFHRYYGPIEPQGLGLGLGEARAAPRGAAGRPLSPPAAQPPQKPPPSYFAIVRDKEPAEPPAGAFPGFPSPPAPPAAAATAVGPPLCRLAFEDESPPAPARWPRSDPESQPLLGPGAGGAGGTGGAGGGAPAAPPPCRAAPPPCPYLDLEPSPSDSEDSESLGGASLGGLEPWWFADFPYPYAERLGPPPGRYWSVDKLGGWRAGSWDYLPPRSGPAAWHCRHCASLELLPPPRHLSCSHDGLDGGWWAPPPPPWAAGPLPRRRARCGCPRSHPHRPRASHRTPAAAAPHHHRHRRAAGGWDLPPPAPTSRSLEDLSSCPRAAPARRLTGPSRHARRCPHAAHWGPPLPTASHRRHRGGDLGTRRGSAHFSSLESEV
Description: as §2, §3, §4, §5

NMDAR2D [3] = molecular target: T3, NMDAR2D (Homo sapiens, UniProt O15399+Q05586); assay: as above; type: biochemical; settings: 50 μM glutamate, read-out: NMDAR2D B: log EC50 (converted)
T3 construct: expressed in transfected cells; host or cells: HEK cells (membrane extract)
T3 sequence (O15399 28-1336, species assumed, other chains not shown): as above
Description: as §2, §3, §4, §5

[4] = Microsomal stability (Rat); type: in vitro ADME; settings: rat microsomes, after 60 minutes
Description: Microsomal stability of disclosed compounds was investigated. The following table indicates the percent of compound remaining after 60 minutes.

Plasma (Rat): percent of compound remaining (Plasma stability (Rat)): 95% | bioavailability ([1]; Sprague Dawley, plasma): 70% | AUC(0-t) ([1]; Sprague Dawley, plasma): 18400 ng·h/mL | Cmax ([1]; Sprague Dawley, plasma): 8540 ng/mL | Tmax ([1]; Sprague Dawley, plasma): 19.8 min | CSF Cmax ([1]; CSF): 4697 ng/mL | Brain Cmax ([1]; brain): 4833 ng/mL | NMDAR2A A: % maximal [3H]MK-801 binding relative to 1 mM glycine (NMDAR2A): + (<100%=+) | EC50 (NMDAR2A; read-out: NMDAR2A B: log EC50 (converted)): < 1 nM | Plasma (Human): percent of compound remaining (Plasma stability (Human)): 98% | NMDAR2D A: % maximal [3H]MK-801 binding relative to 1 mM glycine (NMDAR2D [2]): + (<100%=+) | EC50 (NMDAR2D [3]): < 1 nM | Microsomal (Rat): percent of compound remaining [4]: 100%
SMILES: CC(C)C(=O)N1CCC2(CCCNC2=O)CC1 [Compound AD, 9-isobutyryl-2,9-diazaspiro[5.5]undecan-1-one]
% reduction in float time (Sprague Dawley rats; 0.00001 mg/kg, 1 wk post-dose): 1% | Significance vs. vehicle (Sprague Dawley rats; 0.00001 mg/kg, 1 wk post-dose): No | % reduction in float time (Sprague Dawley rats; 0.00001 mg/kg, 1 h post-dose): 25% | Significance vs. vehicle (Sprague Dawley rats; 0.00001 mg/kg, 1 h post-dose): No | % reduction in float time (Sprague Dawley rats; 0.001 mg/kg, 1 wk post-dose): 41% | Significance vs. vehicle (Sprague Dawley rats; 0.001 mg/kg, 1 wk post-dose): No | % reduction in float time (Sprague Dawley rats; 0.001 mg/kg, 1 h post-dose): 47% | Significance vs. vehicle (Sprague Dawley rats; 0.001 mg/kg, 1 h post-dose): Yes | % reduction in float time (Sprague Dawley rats; 0.1 mg/kg, 1 wk post-dose): 39% | Significance vs. vehicle (Sprague Dawley rats; 0.1 mg/kg, 1 wk post-dose): No | % reduction in float time (Sprague Dawley rats; 0.1 mg/kg, 1 h post-dose): 53% | Significance vs. vehicle (Sprague Dawley rats; 0.1 mg/kg, 1 h post-dose): Yes | % reduction in float time (Sprague Dawley rats; 10.0 mg/kg, 1 wk post-dose): 37% | Significance vs. vehicle (Sprague Dawley rats; 10.0 mg/kg, 1 wk post-dose): No | % reduction in float time (Sprague Dawley rats; 10.0 mg/kg, 1 h post-dose): 39% | Significance vs. vehicle (Sprague Dawley rats; 10.0 mg/kg, 1 h post-dose): Yes

Source: patent US11578072B2, “Spiro-lactam NMDA receptor modulators and uses thereof” (Aptinyx Inc., priority 2018, dated 2023)
